# In the oligonucleotide strings, read from the 5' end, every base follows the letter of its sugar. An asterisk marks phosphorothioate; unmarked linkages are phosphodiester. Other units and linkages are bracketed, terminal groups are in braces. A string of capitals states the bases alone. e = 2'-O-(2-methoxyethyl) (MOE); [5mC] = 5-methylcytosine; d = 2'-deoxy (DNA)
# What was measured:
# [1] = tested on: serum insulin-like growth factor-I; test: Serum IGF-I by radioimmunoassay, 1 week pilot study in Balb/C(a) mice; assay type: in vivo, mouse
# Experimental: Forty male Balb/C(a) mice weighing 9 to […] were placed into cages, 4 animals per cage, and allowed to assimilate into their environment with new littermates ˜1 week prior (Day −7) to the commencement of 1 week study. Mice of this age would be at their maximum growth rate. Their body weights were measured and recorded every second day during this period. When mice weighed 11 g (day −2), a blood sample was collected under anesthesia as described below, and a serum IGF-I assay was performed to determine pre-treatment values and to aid in the assigning of mice to treatment groups in order to reduce animal variability. To obtain the blood sample, the animals were anaesthetized with pentobarbital (50 mg/kg i.p.) and non-fasting blood samples collected exactly 5 minutes later from the retrobulbar plexus through heparinized capillary tubes under light ether anesthesia. The 40 animals were placed into five groups with each group having a similar weight average and similar IGF-I average concentration for the trial.
# Animals (n=8/group) were designated to the following five treatment groups:
# (§1) Saline, antisense, mismatch control and octreotide samples were prepared, and coded for blinding. Animals were given a subcutaneous dose of saline every second day, and mismatch control or antisense with administration on days 0, 2, 4, 6. Animals were given twice daily doses of 25 μg octreotide. Animals were housed 4 per cage, for the duration of one week. They had access to a pre-determined quantity of standard mouse food and water at all times throughout the experiment. They were housed in a quiet, temperature- and humidity-maintained environment for the entirety of the study. At day 0 and before treatment on each day or second day, the animals had their body weight and food intake measured, enabling the correct dose of agent to be administered. The animals were monitored closely for any changes in fur, skin, eye, locomotion or other changes in behavior. No problems were observed. Every second day from day −7 to day 7 body weight and food intake were measured.
# On day 7, one day after the last dose of antisense, and/or after the last octreotide dose, the animals were anaesthetized with pentobarbital (50 mg/kg i.p.) and non-fasting blood samples collected exactly 5 minutes later from the retrobulbar plexus through heparinized capillary tubes under light ether anesthesia (as on day −7 and 0).
# At day −2 and day 7, serum IGF-I measurement was done by radioimmunoassay. Serum IGF-I level is the most widely used measure of growth hormone biological activity in human therapy. It is used to measure the efficacy of growth hormone antagonist treatments like Trovert, which block cells' responsiveness to excess growth hormone, and dopamine agonists and octreotide somatostatin […] drugs that block growth hormone secretion from the pituitary.
# growth hormone receptor = test: [125I] hGH specific binding assay on liver microsomal membranes of treated mice; assay type: in vivo, mouse
# Experimental: Specific binding assays were carried out with liver tissue using iodinated human growth hormone [^125I] hGH.
# Microsomal membrane preparations were obtained as follows. 400 mg of tissue powder was homogenized in cold homogenizing buffer (50 mM Tris/HCl, 250 mM sucrose, pH 7.4). This was centrifuged at 2000 rpm for 10 min at 3° C. and the supernatant was saved. This was centrifuged again at 15,000 rpm for 20 min. Pellets were resuspended in 0.5 ml of RRA buffer with inhibitor (50 mM Tris, 20 mM MgCl2, pH 7.4). Microsomal preparation samples were stored at −80° C. until the specific binding assay.
# The [^125I] hGH specific binding assay was done as follows. Four glass tubes were set up for each sample, two for (−), two for (+). Different sample and solutions were added in each tube as follows (i) 0.2 ml RRA buffer (50 mM Tris, 20 mM MgCl2, 0.1% BSA, pH 7.4); (ii) 0.1 ml membrane (½ or ¼ dilution); (iii) 0.1 ml bGH (10 μg/ml) for the (+) tube or 0.1 ml RRA buffer for the (−) tube; and (iv) 0.1 ml [^125I]-hGH tracer.
# Samples were incubated at 4° C. with shaking overnight. The reaction was stopped with 2.5 ml of cold RRA, and the sample centrifuged at 2800 rpm for 25 min at 4° C. Supernatant was aspirated and pellets counted using the γ-counter. The specific binding capacity was calculated as: CPM(−)-CPM(+). Protein content of the microsomal samples was determined by the BCA protein assay.
# [2] = tested on: growth hormone receptor mRNA; test: Growth hormone receptor mRNA levels in liver, 2 week study; assay type: in vivo, mouse; conditions: 30 mg/kg; two-week study
# Experimental: (§2) A two-week study was done in similar fashion to the one-week study in Example 18, this time using ISIS 227446 at doses of 3, 5, 10, 20 and 30 mg/kg. The mismatch control was given at the same doses. Mice were treated with antisense compound or saline every other day for 14 days.
# Growth hormone receptor mRNA levels in liver tissue samples from treated and untreated mice in this two-week study were assayed. The growth hormone receptor antisense inhibitor ISIS 227446 reduced growth hormone receptor mRNA levels in liver after the two-week study by 50% at the 20 mg/kg dose relative to saline control (p<0.001). The 30 mg/kg dose of ISIS 227446 yielded a 53% decrease in growth hormone receptor mRNA (p<0.0001). The mismatch control oligonucleotide ISIS 261303 (SEQ ID NO: 267), at 30 mg/kg, reduced growth hormone receptor mRNA levels by approximately 3%.
# [3] = cited from earlier work
# serum IGF-I [4] = conditions: animal models; decreased tumor volume in breast cancer; cited from earlier work
# [5] = Body weight, body length, organ weights and food intake, 1 week pilot study; assay type: in vivo, mouse; conditions: 30 mg/kg every second day
# Experimental: as §1
# The serum remaining following the insulin-like growth factor-1 assay was isolated and stored at −80° C. The whole liver was removed rapidly for weighing and snap-frozen in labelled aluminum parcels by submersion in liquid-nitrogen. […]
# This confirms published results of others. […] Weight was measured in two ways: weight trend (live animal), and final carcass weight. […]
# serum IGF-I [6] = test: Serum IGF-I, 2 week study in mice; assay type: in vivo, mouse; conditions: 3 mg/kg; equivalent to saline (untreated) control (separate experiment)
# Experimental: as §2
# P-values were determined by t-test.
# [7] = 30 mg/kg s.c. once every 2 days, 1 week
# [8] = liver microsomal membranes, 30 mg/kg every second day for one week
# [9] = 30 mg/kg s.c. every second day for one week
# [10] = 30 mg/kg every second day for one week
substance,measurement,setting,value
"ISIS 261303: negative control oligonucleotide, 8-base mismatch to ISIS 227446 (DNA AGAGAGCTACCTAACTAACA; chemistry not given here) [reference compound]",% IGF-I reduction at day 7 compared to saline control at day 7,[1]; [7],21%
same,IGF-I (ng/ml) Day 7,[1]; [7],81.1 ± 19.16 ng/mL
same,% IGF-I reduction at day 7 compared to saline control at day 7,"[1]; 30 mg/kg s.c. once every 2 days, 1 week, listed as Mismatch",20.98%
same,IGF-I (ng/ml) Day −2,"[1]; pre-treatment value, 30 mg/kg once every 2 days group",184.87 ± 55.6 ng/mL
same,effect on growth hormone receptor levels compared to the control saline group,growth hormone receptor; 30 mg/kg,no effect
same,Specific binding/mg protein (cpm) ¼ dilution,growth hormone receptor; [8],8431 ± 2663 cpm
same,Specific binding/mg protein (cpm) ½ dilution,growth hormone receptor; [8],7090 ± 1877 cpm
same,reduction of growth hormone receptor mRNA levels in liver,[2],approximately 3%
Pegvisomant [Trovert],drop-out rate,[3]; clinical trial experience,10%
same,serum insulin-like growth factor-I levels reduced by,"[3]; human therapeutic Trovert doses, 12 week and greater than 1 year studies",50%
same,"antibodies being made to Trovert, time of dosing",[3]; immunogenicity,≤ 1 month
same,effective in % of patients,[3]; patients with acromegaly,90-95%
same,reduction of serum IGF-I,serum IGF-I [4],20-50%
acaaagatccatacctgaga (eA*e[5mC]*eA*eA*eA*dG*dA*dT*d[5mC]*d[5mC]*dA*dT*dA*d[5mC]*d[5mC]*eT*eG*eA*eG*eA; antisense) [ISIS 227446],serum IGF-I as % of the control (saline) group,[1]; [9],55%
same,% IGF-I reduction at day 7 compared to saline control at day 7,[1]; [7],45%
same,% IGF-I reduction at day 7 compared to saline control at day 7,"[1]; 30 mg/kg s.c. once every 2 days, 1 week, listed as ASO",44.51%
same,influence on body weight or organ weights,[5],not sufficient to influence body weight or organ weights
same,"reduction of specific binding compared to saline, ¼ dilution",growth hormone receptor; [10],39%
same,"reduction of specific binding compared to saline, ½ dilution",growth hormone receptor; [10],26%
same,growth hormone receptor levels (growth hormone binding activity) as % of control (saline) group,growth hormone receptor; [9],61%
same,growth hormone receptor levels as % of the control (mismatch) group,"growth hormone receptor; ½ dilution experiment, 30 mg/kg",59%
same,effect on serum IGF-I levels,serum IGF-I [6],no effect
same,reduction of growth hormone receptor mRNA levels in liver,[2],53%

# From patent publication US9988635B2, “Modulation of growth hormone receptor expression and insulin-like growth factor expression” (Antisense Therapeutics Limited, priority 2003, dated 2018)
